Measurements as given in ChEMBL document CHEMBL5252602, “Identification and in silicon binding study of a novel NR2B selective NMDAR antagonist” (Bioorg Med Chem Lett, 2023).

Experiments:
SH-SY5Y [1] = test: Neuroprotective activity against human SH-SY5Y cells assessed as effect on NMDA mediated cell damage at 0.05 uM by MTT assay relative to control; format: functional
SH-SY5Y [2] = test: Neuroprotective activity against human SH-SY5Y cells assessed as effect on NMDA mediated cell damage at 0.5 uM by MTT assay relative to control; format: functional
SH-SY5Y [3] = test: Neuroprotective activity against human SH-SY5Y cells assessed as effect on NMDA mediated cell damage at 5 uM by MTT assay relative to control; format: functional
[4] = molecular target: Glutamate receptor ionotropic, NMDA 2B (Homo sapiens, UniProt Q05586+Q13224); test: Antagonist activity at NMDA receptor NR2B subunit (unknown origin)
Sequence of Glutamate receptor ionotropic, NMDA 2B (Q13224 whole entry, one chain of several): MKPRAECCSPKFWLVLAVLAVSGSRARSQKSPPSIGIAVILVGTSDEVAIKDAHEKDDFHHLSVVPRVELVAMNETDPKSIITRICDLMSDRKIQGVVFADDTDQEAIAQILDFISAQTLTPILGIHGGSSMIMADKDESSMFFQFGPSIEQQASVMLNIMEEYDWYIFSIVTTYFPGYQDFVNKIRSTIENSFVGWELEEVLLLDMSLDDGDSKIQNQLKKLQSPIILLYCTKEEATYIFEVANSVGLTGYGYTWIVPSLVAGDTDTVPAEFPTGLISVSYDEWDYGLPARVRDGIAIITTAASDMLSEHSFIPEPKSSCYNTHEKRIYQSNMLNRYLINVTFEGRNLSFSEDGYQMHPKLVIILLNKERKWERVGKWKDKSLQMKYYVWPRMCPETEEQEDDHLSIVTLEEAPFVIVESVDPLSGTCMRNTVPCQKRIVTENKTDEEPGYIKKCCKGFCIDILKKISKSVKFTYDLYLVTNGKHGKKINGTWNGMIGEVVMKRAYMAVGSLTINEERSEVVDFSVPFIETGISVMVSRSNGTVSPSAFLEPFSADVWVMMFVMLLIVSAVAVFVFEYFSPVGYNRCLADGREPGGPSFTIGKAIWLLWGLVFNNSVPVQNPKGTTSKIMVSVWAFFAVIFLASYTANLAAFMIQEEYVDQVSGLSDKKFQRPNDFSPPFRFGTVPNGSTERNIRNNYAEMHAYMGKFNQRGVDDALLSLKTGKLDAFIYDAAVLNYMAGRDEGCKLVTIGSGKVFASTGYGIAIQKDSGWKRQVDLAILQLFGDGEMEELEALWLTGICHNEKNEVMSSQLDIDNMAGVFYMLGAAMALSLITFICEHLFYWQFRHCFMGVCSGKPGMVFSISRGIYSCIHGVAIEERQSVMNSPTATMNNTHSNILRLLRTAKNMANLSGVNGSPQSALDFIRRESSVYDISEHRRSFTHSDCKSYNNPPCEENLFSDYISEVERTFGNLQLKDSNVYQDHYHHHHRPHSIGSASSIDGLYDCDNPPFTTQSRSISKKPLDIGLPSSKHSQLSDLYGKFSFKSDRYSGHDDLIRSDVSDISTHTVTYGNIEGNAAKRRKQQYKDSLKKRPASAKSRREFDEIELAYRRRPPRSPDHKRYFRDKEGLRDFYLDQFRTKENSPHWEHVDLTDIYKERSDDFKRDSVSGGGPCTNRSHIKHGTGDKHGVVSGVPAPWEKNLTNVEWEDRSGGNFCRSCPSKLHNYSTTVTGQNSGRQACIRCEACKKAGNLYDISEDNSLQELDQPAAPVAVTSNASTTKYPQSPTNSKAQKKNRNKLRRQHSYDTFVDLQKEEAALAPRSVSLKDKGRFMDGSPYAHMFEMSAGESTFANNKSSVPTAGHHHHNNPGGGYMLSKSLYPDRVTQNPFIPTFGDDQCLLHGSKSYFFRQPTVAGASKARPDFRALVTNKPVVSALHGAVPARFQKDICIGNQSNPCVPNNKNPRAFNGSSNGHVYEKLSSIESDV

Structure (SMILES) | Activity (SH-SY5Y [1]) [%] | Activity (SH-SY5Y [2]) [%] | Activity (SH-SY5Y [3]) [%] | IC50 [4] [µM]
O=C(NNC(=O)[C@@H]1CCC2=Nc3ccc(Cl)cc3CN21)c1ccc(O)cc1 | 16.03 | 22.55 | 22.58 | 
O=C(NNC(=O)[C@@H]1CCC2=Nc3ccc(Br)cc3CN21)c1ccc(F)cc1 | 23.87 | 19.88 | 19.48 | 
O=C(NNC(=O)[C@@H]1CCC2=Nc3ccc(Br)cc3CN21)c1ccccc1 | 7.13 | 20.92 | 18.22 | 
O=C(NCCc1cccc(O)c1)[C@@H]1CCC2=Nc3ccc(Br)cc3CN21 | 28.73 | 28.87 | 25.35 | 
O=C(NCCc1cccc(O)c1)[C@@H]1CCC2=Nc3ccccc3CN21 | 29.63 | 29.17 | 24.42 | 
O=C(NCCc1ccc(F)cc1)[C@@H]1CCC2=Nc3ccc(Br)cc3CN21 | 4.05 | 7.08 | -2.81 | 
O=C(NCCc1ccc(F)cc1)[C@@H]1CCC2=Nc3ccc(Cl)cc3CN21 | 13.45 | 27.96 | 26.14 | 
Nc1ccc(C(=O)NNC(=O)[C@@H]2CCC3=Nc4ccc(Br)cc4CN32)cc1 | 25.12 | 24.22 | 15.62 | 
Nc1ccc(C(=O)NNC(=O)[C@@H]2CCC3=Nc4ccc(Cl)cc4CN32)cc1 | 30.71 | 25.28 | 20.43 | 
Nc1ccc(CCNC(=O)[C@@H]2CCC3=Nc4ccc(Br)cc4CN32)cc1 | -15.74 | -15.08 | -11.03 | 
Nc1ccc(CCNC(=O)[C@@H]2CCC3=Nc4ccc(Cl)cc4CN32)cc1 | -5.03 | -16.58 | -15.32 | 
O=C(NCCc1ccc(O)cc1)[C@@H]1CCC2=Nc3ccc(Cl)cc3CN21 | 28.93 | 28.33 | 21.32 | 
O=C(NCCc1ccccc1)[C@@H]1CCC2=Nc3ccc(Br)cc3CN21 | 11.08 | 7.54 | 10.59 | 
COc1ccc(CCNC(=O)[C@@H]2CCC3=Nc4ccc(Cl)cc4CN32)cc1 | 17.35 | 30.19 | 30.66 | 
COc1ccc(C(=O)NNC(=O)[C@@H]2CCC3=Nc4ccc(Cl)cc4CN32)cc1 | 19.6 | 20.2 | 12.17 | 
O=C(NNC(=O)[C@@H]1CCC2=Nc3ccc(Cl)cc3CN21)c1ccc(F)cc1 | 22.58 | 20.68 | 17.26 | 
O=C(NNC(=O)[C@@H]1CCC2=Nc3ccc(Cl)cc3CN21)c1ccccc1 | 26.91 | 24.25 | 19.76 | 
O=C(NCCc1ccccc1)[C@@H]1CCC2=Nc3ccc(Cl)cc3CN21 | 13.21 | 5.78 | 10.01 | 
COc1ccc(C(=O)NNC(=O)[C@@H]2CCC3=Nc4ccccc4CN32)cc1 | 12.59 | 17.74 | 22.42 | 
COc1ccc(CCNC(=O)[C@@H]2CCC3=Nc4ccc(Br)cc4CN32)cc1 | 27.75 | 27.25 | 17.27 | 
COc1ccc(C(=O)NNC(=O)[C@@H]2CCC3=Nc4ccc(Br)cc4CN32)cc1 | 9.01 | 15.94 | 19.77 | 
O=C(NCCc1cccc(O)c1)[C@@H]1CCC2=Nc3ccc(Cl)cc3CN21 | 23.62 | 28.02 | 29.37 | 
Cc1nccn1Cc1cc(-c2ccc(F)c(C(F)F)c2)cnn1 [EVT-101 FREE BASE] |  |  |  | 0.017
CC(C(O)c1ccc(O)cc1)N1CCC(Cc2ccccc2)CC1 (stereo not given) [IFENPRODIL] | 16.4 | 22.57 | 35.81 | 
